Peptide text beside a SMILES is read from it. * marks the point of attachment. βNA = c1ccc2cc(N*)ccc2c1
What was measured:
K. pneumoniae ATCC 33495 [1] = assay: Checkerboard assay with PMB; type: cell-based, Klebsiella pneumoniae
Protocol: (§1) MICs of NCL259 or NCL265 in the presence of the efflux pump inhibitor, PAβN were determined using a checkerboard assay. […] Briefly, a two-fold serial dilution of each antimicrobial solution was prepared in its appropriate solvent (e.g., DMSO for robenidine analogues and Milli-Q water for PAβN), and 1 μL of each dilution was added from wells 12 to 3 (12.8–0.25 μg/mL for robenidine analogues, and 32–2 μg/mL for PAβN). Thereafter, 89 μL of LB broth was added to each well followed by the addition of 10 μL of bacterial suspension (1–5 × 10^6 CFU/mL) to each well. In this manner, the final concentration of DMSO in each well was 1%. The plate was subsequently incubated at 37 °C for 24 h. The resazurin assay was used for assessment of drug susceptibility of NCL259 and NCL265 (Supplementary Table S1–S6). The same method was also used to test the MICs of NCL259 or NCL265 in the presence of PMB against a range of Gram-negative reference strains (E. coli ATCC 25922, E. coli ATCC 10763, P. aeruginosa PAO1, P. aeruginosa ATCC 27853, A. baumannii ATCC 12457, A. baumannii ATCC 19606, K. pneumoniae ATCC 4352 and K. pneumoniae ATCC 33495). Stock solutions were prepared prior to use (25.6–0.25 mg/mL for robenidine analogues; 12.8–0.25 mg/mL for PMB). The interaction of two antibiotics was calculated as the fractional inhibitory concentration index (FICI) using the following formula:(1) FICI=MICA in combination/MICA alone+MICB in combination/MICB alone where A is NCL259 or NCL265 and B is PAβN or PMB. According to FICI calculations, the interaction between two compounds were interpreted as follows: synergistic (FICI ≤ 0.5); additive or partially synergistic (0.5 < FICI ≤ 1); indifferent (1 < FICI ≤ 4); and antagonistic (FICI > 4), as described previously. The dose reduction index (DRI) was used to describe the difference between the effective doses of NCL259 or NCL265 in combination with PMB or PAβN in comparison to their individual doses, using the following formula:(2) DRI=MICA alone/MICA in combination
(§2) Evaluation of DRI is important clinically because it can allow the dose of a potentially toxic drug to be lowered in combination with another compound without reducing the drug’s efficacy. A DRI higher than 1 is viewed as beneficial.

K. pneumoniae ATCC 4352 [2] = assay: Checkerboard assay with PMB; type: cell-based, Klebsiella pneumoniae
Protocol: as §1, §2

P. aeruginosa PAO1 [3] = assay: Checkerboard assay with PMB; type: cell-based, Pseudomonas aeruginosa
Protocol: as §1, §2

P. aeruginosa ATCC 27853 [4] = assay: Checkerboard assay with PMB; type: cell-based, Pseudomonas aeruginosa
Protocol: as §1, §2

A. baumannii ATCC 12457 [5] = assay: MIC, broth micro-dilution; type: cell-based, Acinetobacter baumannii
Protocol: (§3) A variety of Gram-negative reference strains (E. coli ATCC 25922, E. coli ATCC 10763, P. aeruginosa PAO1, P. aeruginosa ATCC 27853, A. baumannii ATCC 12457, A. baumannii ATCC 19606, K. pneumoniae ATCC 4352 and K. pneumoniae ATCC 33495) were used for initial screening and combination testing with PMB. The organisms were speciated using biochemical testing and MALDI-TOF mass spectrometry (Bruker, Preston, VIC, Australia). Activity testing of NCL259 and NCL265 was also carried out on 51 extraintestinal clinical E. coli isolates from companion animals, and 83 porcine and bovine enterotoxigenic E. coli (ETEC) isolates from the Australian Centre for Antimicrobial Resistance Ecology collection. E. coli wild-type (BW 25113) and its mutant BW 25113∆AcrB, in which the inner membrane component AcrB of the tripartite multidrug efflux system AcrA/AcrB/TolC has been deleted, were obtained from the bacterial collection held at Health and Biomedical Innovation, Clinical and Health Sciences, The University of South Australia. All isolates were cultured on sheep blood agar (SBA) plates at 37 °C for 18 h before being subcultured into Luria Bertaini (LB) (Oxoid, Scoresby, VIC, Australia) broth and grown to A600nm = 0.5 (equivalent to approx. 1.5 × 10^8 colony-forming units (CFU)/mL).
(§4) MICs for NCL259 and NCL265 (serial two-fold dilutions commencing at 256 µg/mL) were determined (in duplicate) in round bottom 96–well microtitre trays (Sarstedt 82.1582.001), using the broth micro-dilution method recommended by the Clinical and Laboratory Standards Institute (CLSI). We have shown previously that robenidine can chelate calcium ions from cation-adjusted Mueller-Hinton broth, which causes the loss of activity of robenidine. Therefore, LB broth was used in this study. Additionally, considering the low solubility of robenidine and its analogues in aqueous solutions, two-fold serial dilutions of stock solutions of these compounds were prepared in 100% DMSO [21]. The MIC for ampicillin against each isolate was determined for each test to serve as an internal quality control. The MICs of isolates were determined by visual reading and using an EnSpire Multimode Plate Reader 2300 at A600nm.

A. baumannii ATCC 19606 [6] = assay: MIC, broth micro-dilution; type: cell-based, Acinetobacter baumannii
Protocol: as §3, §4

E. coli ATCC 25922 [7] = assay: Checkerboard assay with PMB; type: cell-based, Escherichia coli
Protocol: as §1, §2

E. coli ATCC 10763 [8] = assay: Checkerboard assay with PMB; type: cell-based, Escherichia coli
Protocol: as §1, §2

K. pneumoniae ATCC 33495 [9] = assay: MIC, broth micro-dilution; type: cell-based, Klebsiella pneumoniae; details: K. pneumoniae ATCC 33495
Protocol: as §3, §4

K. pneumoniae ATCC 4352 [10] = assay: MIC, broth micro-dilution; type: cell-based, Klebsiella pneumoniae
Protocol: as §3, §4

E. coli ATCC 25922 [11] = assay: MIC, broth micro-dilution; type: cell-based, Escherichia coli
Protocol: as §3, §4

E. coli ATCC 10763 [12] = assay: MIC, broth micro-dilution; type: cell-based, Escherichia coli; details: E. coli ATCC 10763
Protocol: as §3, §4

P. aeruginosa PAO1 [13] = assay: MIC, broth micro-dilution; type: cell-based, Pseudomonas aeruginosa
Protocol: as §3, §4

P. aeruginosa ATCC 27853 [14] = assay: MIC, broth micro-dilution; type: cell-based, Pseudomonas aeruginosa
Protocol: as §3, §4

A. baumannii ATCC 12457 [15] = assay: Checkerboard assay with PMB; type: cell-based, Acinetobacter baumannii
Protocol: as §1, §2

A. baumannii ATCC 19606 [16] = assay: Checkerboard assay with PMB; type: cell-based, Acinetobacter baumannii
Protocol: as §1, §2

K. oxytoca 13GNB–582 [17] = assay: MIC, broth micro-dilution; type: cell-based; details: Klebsiella oxytoca, read-out: MIC, Single Drug
Protocol: as §4, §1

K. pneumoniae 13GNB–550 [18] = assay: MIC, broth micro-dilution; type: cell-based; details: Klebsiella pneumoniae, read-out: MIC, Single Drug
Protocol: as §4, §1

K. pneumoniae 13GNB–429 [19] = assay: MIC, broth micro-dilution; type: cell-based; details: Klebsiella pneumoniae, read-out: MIC, Single Drug
Protocol: as §4, §1

K. oxytoca 13GNB–582 [20] = assay: Checkerboard assay with PAβN; type: cell-based; details: for concentration at the marked interaction: resazurin
Protocol: as §1, §2

K. pneumoniae 13GNB–550 [21] = assay: Checkerboard assay with PAβN; type: cell-based, Klebsiella pneumoniae; details: for concentration at the marked interaction: resazurin
Protocol: as §1, §2

K. pneumoniae 13GNB–429 [22] = assay: Checkerboard assay with PAβN; type: cell-based, Klebsiella pneumoniae; details: for concentration at the marked interaction: resazurin
Protocol: as §1, §2

## polymyxin B [PMB, reference compound]
K. pneumoniae ATCC 33495 [1]; PMB + NCL259
  Dose Reduction Index (DRI) PMB:NCL259: 2
K. pneumoniae ATCC 33495 [1]; PMB + NCL265
  Dose Reduction Index (DRI) PMB:NCL265: 4
K. pneumoniae ATCC 4352 [2]; NCL259 or NCL265 with PMB
  MIC, Combination: 0.25 µg/mL
K. pneumoniae ATCC 4352 [2]; PMB + NCL259
  Dose Reduction Index (DRI) PMB:NCL259: 4
K. pneumoniae ATCC 4352 [2]; PMB + NCL265
  Dose Reduction Index (DRI) PMB:NCL265: 4:4
P. aeruginosa PAO1 [3]; NCL259 or NCL265 with PMB
  MIC, Combination: 0.5 µg/mL
P. aeruginosa PAO1 [3]; PMB + NCL259
  Dose Reduction Index (DRI) PMB:NCL259: 2
P. aeruginosa PAO1 [3]; PMB + NCL265
  Dose Reduction Index (DRI) PMB:NCL265: 2
P. aeruginosa ATCC 27853 [4]; NCL259 or NCL265 with PMB
  MIC, Combination: 0.5 µg/mL
P. aeruginosa ATCC 27853 [4]; PMB + NCL259
  Dose Reduction Index (DRI) PMB:NCL259: 2
P. aeruginosa ATCC 27853 [4]; PMB + NCL265
  Dose Reduction Index (DRI) PMB:NCL265: 2
A. baumannii ATCC 12457 [5]
  MIC, Single Drug: 1 µg/mL
A. baumannii ATCC 19606 [6]
  MIC, Single Drug: 1 µg/mL
E. coli ATCC 25922 [7]; NCL259 or NCL265 with PMB
  MIC, Combination: 0.25 µg/mL
E. coli ATCC 25922 [7]; PMB + NCL259
  Dose Reduction Index (DRI) PMB:NCL259: 2
E. coli ATCC 25922 [7]; PMB + NCL265
  Dose Reduction Index (DRI) PMB:NCL265: 2
E. coli ATCC 10763 [8]; PMB + NCL259
  Dose Reduction Index (DRI) PMB:NCL259: 2
E. coli ATCC 10763 [8]; PMB + NCL265
  Dose Reduction Index (DRI) PMB:NCL265: 4
K. pneumoniae ATCC 33495 [9]
  MIC, Single Drug: 1 µg/mL
K. pneumoniae ATCC 4352 [10]
  MIC, Single Drug: 1 µg/mL
E. coli ATCC 25922 [11]
  MIC, Single Drug: 0.5 µg/mL
E. coli ATCC 10763 [12]
  MIC, Single Drug: 1 µg/mL
P. aeruginosa PAO1 [13]
  MIC, Single Drug: 1 µg/mL
P. aeruginosa ATCC 27853 [14]
  MIC, Single Drug: 1 µg/mL
A. baumannii ATCC 12457 [15]; NCL259 or NCL265 with PMB
  MIC, Combination: 0.5 µg/mL
A. baumannii ATCC 12457 [15]; PMB + NCL259
  Dose Reduction Index (DRI) PMB:NCL259: 2
A. baumannii ATCC 12457 [15]; PMB + NCL265
  Dose Reduction Index (DRI) PMB:NCL265: 2
A. baumannii ATCC 19606 [16]; NCL259 or NCL265 with PMB
  MIC, Combination: 0.5 µg/mL
A. baumannii ATCC 19606 [16]; PMB + NCL259
  Dose Reduction Index (DRI) PMB:NCL259: 2
A. baumannii ATCC 19606 [16]; PMB + NCL265
  Dose Reduction Index (DRI) PMB:NCL265: 2

## NC(N)=NCCC[C@H](NC(=O)[C@@H](N)Cc1ccccc1)C(=O)Nc1ccc2ccccc2c1 [PAβN, phenylalanine-arginine-beta-naphthylamide, reference compound] (H-Phe-Arg-βNA)
K. oxytoca 13GNB–582 [17]
  MIC: > 32 µg/mL
K. pneumoniae 13GNB–550 [18]
  MIC: > 32 µg/mL
K. pneumoniae 13GNB–429 [19]
  MIC: > 32 µg/mL
K. oxytoca 13GNB–582 [20]; K. oxytoca 13GNB–582
  DRI PAβN:NCL259: 4
  DRI PAβN:NCL265: 2
K. oxytoca 13GNB–582 [20]; K. oxytoca 13GNB–582, PAβN + NCL259
  MIC, Combination: 16 µg/mL
K. oxytoca 13GNB–582 [20]; K. oxytoca 13GNB–582, PAβN + NCL265
  MIC, Combination: 32 µg/mL
K. oxytoca 13GNB–582 [20]; Table S3, NCL259 + PAβN, replicate 1
  concentration at the marked interaction: 8 µg/mL
K. oxytoca 13GNB–582 [20]; Table S3, NCL259 + PAβN, replicate 2
  concentration at the marked interaction: 8 µg/mL
K. oxytoca 13GNB–582 [20]; Table S6, NCL265 + PAβN, replicate 1
  concentration at the marked interaction: 8 µg/mL
K. oxytoca 13GNB–582 [20]; Table S6, NCL265 + PAβN, replicate 2
  concentration at the marked interaction: 8 µg/mL
K. pneumoniae 13GNB–550 [21]; K. pneumoniae 13GNB–550
  DRI PAβN:NCL259: 2
  DRI PAβN:NCL265: 2
K. pneumoniae 13GNB–550 [21]; K. pneumoniae 13GNB–550, PAβN + NCL259
  MIC, Combination: 32 µg/mL
K. pneumoniae 13GNB–550 [21]; K. pneumoniae 13GNB–550, PAβN + NCL265
  MIC, Combination: 32 µg/mL
K. pneumoniae 13GNB–550 [21]; Table S2, NCL259 + PAβN, replicate 1
  concentration at the marked interaction: 16 µg/mL
K. pneumoniae 13GNB–550 [21]; Table S2, NCL259 + PAβN, replicate 2
  concentration at the marked interaction: 8 µg/mL
K. pneumoniae 13GNB–550 [21]; Table S5, NCL265 + PAβN, replicate 1
  concentration at the marked interaction: 8 µg/mL
K. pneumoniae 13GNB–550 [21]; Table S5, NCL265 + PAβN, replicate 2
  concentration at the marked interaction: 8 µg/mL
K. pneumoniae 13GNB–429 [22]; K. pneumoniae 13GNB–429
  DRI PAβN:NCL259: 4
  DRI PAβN:NCL265: 2
K. pneumoniae 13GNB–429 [22]; K. pneumoniae 13GNB–429, PAβN + NCL259
  MIC, Combination: 16 µg/mL
K. pneumoniae 13GNB–429 [22]; K. pneumoniae 13GNB–429, PAβN + NCL265
  MIC, Combination: 32 µg/mL
K. pneumoniae 13GNB–429 [22]; Table S1, NCL259 + PAβN, replicate 1
  concentration at the marked interaction: 8 µg/mL
K. pneumoniae 13GNB–429 [22]; Table S1, NCL259 + PAβN, replicate 2
  concentration at the marked interaction: 8 µg/mL
K. pneumoniae 13GNB–429 [22]; Table S4, NCL265 + PAβN, replicate 1
  concentration at the marked interaction: 8 µg/mL
K. pneumoniae 13GNB–429 [22]; Table S4, NCL265 + PAβN, replicate 2
  concentration at the marked interaction: 4 µg/mL
